For orientation: IC50 means the concentration at which inhibition is half-maximal.

Test [1] deals with T1, RNA-directed RNA polymerase (Hepacivirus hominis, UniProt O39930). The test is described as follows: Displacement of 0.1 uM UTP from NS5B in Hepatitis C virus.
Test [2] deals with T1, RNA-directed RNA polymerase. Briefly: Displacement of 1 uM UTP from NS5B in Hepatitis C virus.
Test [3] shares this target. The test is described as follows: Displacement of 5 uM UTP from NS5B in Hepatitis C virus.
Test [4] has the same target. Briefly: Displacement of 100 uM PPi from NS5B in Hepatitis C virus.
Test [5] concerns the target RNA-directed RNA polymerase (Hepacivirus hominis, UniProt O39930, P156L). The test is described as follows: Inhibition of NS5B P156L mutant-mediated RNA synthesis in Hepatitis C virus as decrease in formation of full-length product after 45 mins.
Test [6] addresses T1, RNA-directed RNA polymerase. Briefly: Inhibition of NS5B-mediated RNA synthesis in Hepatitis C virus assessed as decrease in formation of full-length product after 45 mins.
The target is the same in test [7]. The test is described as follows: Displacement of 50 uM PPi from NS5B in Hepatitis C virus.
Test [8] concerns the target RNA-directed RNA polymerase (Hepacivirus hominis, UniProt O39930, G152E). The test is described as follows: Inhibition of NS5B G152E mutant-mediated RNA synthesis in Hepatitis C virus as decrease in formation of full-length product after 45 mins.
Test [9] deals with T1, RNA-directed RNA polymerase. The test is described as follows: Displacement of 500 uM PPi from NS5B in Hepatitis C virus.

T1 sequence (O39930 whole entry): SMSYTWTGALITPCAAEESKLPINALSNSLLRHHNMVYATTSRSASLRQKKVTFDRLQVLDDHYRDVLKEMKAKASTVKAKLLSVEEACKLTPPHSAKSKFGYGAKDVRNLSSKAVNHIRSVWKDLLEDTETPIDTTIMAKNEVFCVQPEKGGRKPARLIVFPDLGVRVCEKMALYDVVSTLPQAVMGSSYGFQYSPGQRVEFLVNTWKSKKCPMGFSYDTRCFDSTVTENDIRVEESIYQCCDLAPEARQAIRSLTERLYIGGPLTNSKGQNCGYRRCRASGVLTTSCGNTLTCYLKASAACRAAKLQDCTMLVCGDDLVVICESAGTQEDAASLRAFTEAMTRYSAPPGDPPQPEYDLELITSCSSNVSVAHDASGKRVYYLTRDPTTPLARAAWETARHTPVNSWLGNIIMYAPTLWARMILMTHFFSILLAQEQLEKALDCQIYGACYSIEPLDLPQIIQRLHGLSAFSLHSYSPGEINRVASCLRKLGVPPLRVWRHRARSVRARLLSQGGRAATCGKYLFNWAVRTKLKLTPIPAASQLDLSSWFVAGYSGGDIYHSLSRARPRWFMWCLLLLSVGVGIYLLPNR
Sequence of RNA-directed RNA polymerase (Hepacivirus hominis, UniProt O39930, G152E) (O39930 entry or part of it G152E): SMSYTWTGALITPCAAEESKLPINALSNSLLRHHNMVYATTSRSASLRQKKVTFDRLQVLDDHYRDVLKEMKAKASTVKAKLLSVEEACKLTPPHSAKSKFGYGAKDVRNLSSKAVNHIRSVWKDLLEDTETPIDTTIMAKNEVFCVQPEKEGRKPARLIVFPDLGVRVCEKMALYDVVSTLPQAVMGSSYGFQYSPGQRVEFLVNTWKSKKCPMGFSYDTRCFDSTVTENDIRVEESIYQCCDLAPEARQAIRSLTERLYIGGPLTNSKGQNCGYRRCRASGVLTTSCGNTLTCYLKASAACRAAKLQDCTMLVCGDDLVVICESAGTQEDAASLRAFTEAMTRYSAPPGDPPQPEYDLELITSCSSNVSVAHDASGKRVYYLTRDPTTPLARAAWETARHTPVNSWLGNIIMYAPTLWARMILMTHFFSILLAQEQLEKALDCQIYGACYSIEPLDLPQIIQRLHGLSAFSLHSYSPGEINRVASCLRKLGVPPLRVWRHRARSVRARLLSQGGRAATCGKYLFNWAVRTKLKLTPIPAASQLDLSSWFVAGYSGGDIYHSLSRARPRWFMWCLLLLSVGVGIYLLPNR
Sequence of RNA-directed RNA polymerase (Hepacivirus hominis, UniProt O39930, P156L) (O39930 entry or part of it P156L): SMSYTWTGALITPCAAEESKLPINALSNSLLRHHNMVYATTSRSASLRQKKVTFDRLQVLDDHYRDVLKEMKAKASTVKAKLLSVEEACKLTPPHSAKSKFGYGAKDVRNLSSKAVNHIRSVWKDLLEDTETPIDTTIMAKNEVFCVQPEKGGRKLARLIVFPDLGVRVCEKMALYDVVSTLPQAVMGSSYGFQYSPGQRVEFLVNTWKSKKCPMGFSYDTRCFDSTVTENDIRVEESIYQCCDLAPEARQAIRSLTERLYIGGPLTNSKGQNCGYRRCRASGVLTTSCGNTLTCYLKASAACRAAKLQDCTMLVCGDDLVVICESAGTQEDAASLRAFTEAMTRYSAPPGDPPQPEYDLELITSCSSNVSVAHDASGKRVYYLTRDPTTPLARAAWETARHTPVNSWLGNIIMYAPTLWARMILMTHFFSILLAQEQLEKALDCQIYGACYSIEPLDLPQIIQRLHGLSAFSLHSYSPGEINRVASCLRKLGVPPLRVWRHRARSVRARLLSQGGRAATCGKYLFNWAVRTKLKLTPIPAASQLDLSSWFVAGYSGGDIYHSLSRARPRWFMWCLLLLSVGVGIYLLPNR

With `O=C(Nc1ccsc1-c1nc(O)c(O)c(C(=O)O)n1)OCc1c(Cl)cccc1Cl`, the 50% inhibitory concentration (IC50) in test [1] is 258 nM; in test [2], over 500 nM; in [3] it was over 1000 nM; in test [4], 302 nM; in test [5], 5390 nM; in test [6], 730 nM. The IC50 is 174 nM in test [7], 3780 nM in test [8] and 882 nM in test [9].

(Values after ChEMBL document CHEMBL1255387, “Mechanism of hepatitis C virus RNA polymerase inhibition with dihydroxypyrimidines” (Antimicrob Agents Chemother, 2010).)
